Patent publication US10604580B2, “Combination therapies with anti-CD38 antibodies” (Janssen Biotech, Inc., priority 2014, dated 2020)

Assays:
[1] = system: MM cell lines XG-1, RPMI8226 and UM9; experiment: BLI-based ADCC and CDC assays, ATRA alone; type: cell-based, human; conditions: 10 nM ATRA alone
XG-1 cells [2] = experiment: CD38 expression by flow cytometry, XG-1; type: cell-based, human; conditions: ATRA
Method: (§1) Expression of several cell surface proteins was determined by flow cytometric analysis using FITC-, PE-, Per-CP-, or APC-conjugated monoclonal antibodies. Anti-CD38, anti-CD138, and anti-CD56 were purchased from Beckman Coulter; anti-CD3, anti-CD16, anti-CD55, anti-CD59 from BD Biosciences; and anti-CD46 from Biolegend. Flow cytometry was done using a FACS-Calibur device (Becton Dickinson); the data were analyzed using the CellQuest software.
(§2) Interaction of ATRA with nuclear retinoic acid receptors results in altered expression of target genes including induction of CD38 expression (Malavasi F. J Leukoc Biol 90:217-219, 2011; Drach et al., Cancer Res 54:1746-1752, 1994). Therefore, effect of ATRA on MM cell lines RPMI8226, UM9, and XG1 was studied. MM cells were incubated with RPMI-1640 medium alone or with ATRA ranging from 0-25 nM for 48 hours (FIG. 1A) or were incubated with 10 nM ATRA for 24, 48, 72 or 96 hours (FIG. 1B) and then harvested to determine CD38 expression by flow cytometry using a FACS-Calibur device (Becton Dickinson) and anti-CD38 antibody (Beckman Coulter). The data were analyzed using the CellQuest software.

RPMI8226 cells [3] = experiment: BLI-based ADCC assay, RPMI8226; conditions: 10 nM ATRA 48 hours
Method: (§4) For MM cell lines, CDC and ADCC were assessed using bioluminescence imaging (BLI) based ADCC and CDC assays as described above. For primary MM cells, CDC and ADCC were assessed using Flow cytometry-based ex vivo ADCC and CDC assays in BM-MNC as described above. […] Isotype control was added at 10 μg/ml, and 10% heat-inactivated serum was used as control for CDC.

[4] = system: MM cell lines RPMI8226, UM9, and XG1; experiment: CD38 expression on MM cell lines by flow cytometry (pooled statement); type: cell-based, human
Method: as §1, §2

[5] = system: RPMI8226, L363 and XG-1 cells; experiment: Complement-inhibitory protein expression on MM cell lines by flow cytometry; type: cell-based, human; conditions: 0-25 nM ATRA, 48 hour
Method: as §1
(§3) The effect of ATRA on effector cells was evaluated. […] In the experiments, cells were cultured at 37° C. with RPMI-1640 medium with or without 10 nM ATRA 10 nM for 48 h. Cells were then incubated at 4° C. for 20 min with the appropriate conjugated antibodies panel. Flow cytometric analyses were performed using a FACS-Calibur device (Becton Dickinson); the data were analyzed using the CellQuest software.

UM9 cells [6] = experiment: BLI-based ADCC assay, UM9; conditions: 10 nM ATRA 48 hours vs solvent control
Method: as §4

XG-1 cells [7] = experiment: BLI-based CDC assay, XG-1; type: cell-based, human; conditions: 10 nM ATRA 48 hours vs solvent control
[8] = system: primary MM cells derived from 16 patients; experiment: Complement-inhibitory protein expression on primary MM cells by flow cytometry; type: cell-based, human; conditions: 10 nM ATRA, 48 h
Method: as §1, §3

UM9 cells [9] = experiment: CD38 expression by flow cytometry, UM9; type: cell-based, human; conditions: ATRA
Method: as §1, §2

[10] = system: PBMCs from healthy donors; human MM cell lines L363-CD38, LME-1, RPMI8226 and UM9; experiment: Effect of ATRA on effector cells (PBMC-induced ADCC); type: cell-based; conditions: data not shown
Method: as §3

RPMI8226 cells [11] = experiment: CD38 expression by flow cytometry, RPMI8226; type: cell-based, human; conditions: ATRA
Method: as §1, §2

XG-1 cells [12] = experiment: BLI-based ADCC assay, XG-1; conditions: 10 nM ATRA 48 hours vs solvent control
Method: as §4

primary MM cells [13] = experiment: Flow cytometry-based ex vivo ADCC assay in BM-MNC; type: cell-based, human; conditions: for ADCC, median: 10 μg/mL daratumumab, pooled patients
Method: Freshly isolated BM-MNCs, containing 2-57% malignant plasma cells as determined by flow cytometry, were immediately used in ex vivo experiments. […] Sample viability at incubation was more than 98%, as assessed by using ToPro-3 (Invitrogen/Molecular Probes). […] Pooled human serum (10%) was used as a source of complement. The survival of primary CD138^+ MM cells in the BM-MNCs was determined by flow-cytometry as previously described (van der Veers et al., Haematologica 96:284-290, 2011; van der Veers et al., Blood Cancer J 1:e41, 2011). Surviving MM cells were enumerated by single platform flow-cytometric analysis of CD138^+ cells (with CD138-PE (Beckman Coulter, Miami, Fla., USA)) in the presence of Flow-Count Fluorospheres (Beckman Coulter) to determine absolute numbers of cells.

[14] = system: primary MM cells (BM-MNCs from 26 MM patients); experiment: Ex vivo ATRA exposure of primary MM cells, surface antigen expression by flow cytometry; type: cell-based, human; conditions: 10 nM ATRA, 48 hours
Method: as §1
Ex vivo ATRA exposure (10 nM, 48 hours) of primary MM cells from 26 patients was also studied. In these experiments, BM-MNCs from 26 MM patients were incubated with RPMI-1640 medium alone or with 10 nM ATRA for 48 hours, incubated at 4° C. for 20 min with FITC-conjugated CD38 antibody (Beckman Coulter) and then harvested to determine CD38 expression by flow cytometry. Flow cytometric analyses were performed using a FACS-Calibur device (Becton Dickinson); the data were analyzed using the CellQuest software.

RPMI8226 cells [15] = experiment: BLI-based CDC assay, RPMI8226; type: cell-based, human; conditions: 10 nM ATRA 48 hours
primary MM cells [16] = experiment: Flow cytometry-based ex vivo CDC assay in BM-MNC; type: cell-based, human; conditions: for CDC, median: 10 μg/mL daratumumab, pooled patients
Method: Freshly isolated BM-MNCs, containing 2-57% malignant plasma cells as determined by flow cytometry, were immediately used in ex vivo experiments. […] Pooled human serum (10%) was used as a source of complement. The survival of primary CD138^+ MM cells in the BM-MNCs was determined by flow-cytometry as previously described (van der Veers et al., Haematologica 96:284-290, 2011; van der Veers et al., Blood Cancer J 1:e41, 2011). Surviving MM cells were enumerated by single platform flow-cytometric analysis of CD138^+ cells (with CD138-PE (Beckman Coulter, Miami, Fla., USA)) in the presence of Flow-Count Fluorospheres (Beckman Coulter) to determine absolute numbers of cells.

[17] = system: luciferase-transduced XG1 multiple myeloma cells; experiment: Humanized multiple myeloma mouse model, tumor growth by BLI; type: in vivo, RAG2−/−γc−/− mice; conditions: for tumor progression (BLI): single agent plus PBMC-T, daratumumab 8 mg/kg i.p., ATRA 10 mg/kg i.p., weekly BLI for 5 weeks
Excerpt: Hybrid scaffolds consisting of three 2-3 mm biphasic calcium phosphate particles were coated in vitro with human mesenchymal stromal cells (MSCs; 2×10^5 cells/scaffold). After a week of in vitro culture in a osteogenic medium, humanized scaffolds were implanted subcutaneously into RAG2^−/−γc^−/− mice, as described previously (Groen et al., Blood. 19; 120:e9-e16, 2012; de Haart et al., Clin. Cancer Res. 19:5591-5601, 2013).
Eight weeks after implantation, mice received a sublethal irradiation dose (3 Gy, 200 kV, 4 mA) and luciferase-transduced XG1 cells were injected directly into the scaffold (1×10^6 cells/scaffold). […] PBMC-T were prepared by Ficoll-Hypaque density-gradient centrifugation of buffy coats, and subsequent depletion of T cells by CD3-beads using the Easy Sep™-technology ([…] Technologies). Tumor growth was monitored by weekly BLI measurements as described previously (Groen et al., Blood. 19; 120:e9-e16, 2012). All animal experiments were conducted after acquiring permission from the local ethical committee for animal experimentation and were in compliance with the Dutch Animal Experimentation Act. The statistical differences between the different treatment groups in the mice experiments were calculated using a Mann-Whitney test. P-values below 0.05 were considered significant.
Luciferase-transduced XG1 multiple myeloma cells developed into aggressive tumors in immunodeficient RAG2^−/−γc^−/− mice in a humanized bone marrow microenvironment generated by subcutaneous implantation of MSC-coated ceramic scaffolds. […] To follow the outgrowth of the tumor, BLI was performed weekly for 5 weeks.

[18] = after 10 nM ATRA pretreatment 48 hours

`CC1=C(/C=C/C(C)=C/C=C/C(C)=C/C(=O)O)C(C)(C)CCC1` [ATRA, all-trans retinoic acid] was tested, and the “MM cell lysis by ATRA alone” value [1] was “no MM cell lysis”, the “enhanced CD38 expression” value (XG-1 cells [2]) was 2.9 fold and the “effect of ATRA pretreatment on daratumumab-mediated ADCC” value (RPMI8226 cells [3]) was “no significant improvement”. For the same compound, the “increase in CD38 expression” value ([4]; 10 nM ATRA (minimum sufficient), 48 hours, RPMI8226, UM9, XG1) was 1.9-4.4 fold, the “time of maximum enhancement of CD38 expression” value ([4]; 10 nM ATRA for 24, 48, 72 or 96 hours) was 48 h and the “CD38 expression at higher doses of ATRA” value ([4]; doses above 10 nM up to 25 nM, 48 hours) was “did not further enhance”. For the same compound, the CD46 expression levels [5] was “reduced expression levels”, the CD55 expression levels [5] was “reduced expression levels” and the CD59 expression levels [5] was “reduced expression levels”. For the same compound, the “effect of ATRA pretreatment on daratumumab-mediated ADCC” value (UM9 cells [6]) was “significantly increased”, the “effect of ATRA pretreatment on daratumumab-mediated CDC” value (XG-1 cells [7]) was “significantly increased” and the CD46 expression levels [8] was “did not significantly affect”. The “expression of CD59, mean reduction” value ([8]; P=0.0047) was 37.5%, the “expression of CD55, mean reduction” value ([8]; P=0.019) was 21.3% and the “enhanced CD38 expression” value (UM9 cells [9]) was 4.4 fold. The “effect on ability of PBMCs to induce ADCC” value [10] was “no effect or minimal effect”, the “upregulation of CD38 expression” value (RPMI8226 cells [11]) was 1.9 fold and the “effect of ATRA pretreatment on daratumumab-mediated ADCC” value (XG-1 cells [12]) was “significantly increased”. The “patients with significant increase in susceptibility to daratumumab-mediated ADCC” value (primary MM cells [13]; ATRA pretreatment 48 hours) was 8 out of 11, the “effect of ATRA on daratumumab-mediated ADCC” value (primary MM cells [13]; most primary MM cells tested) was “induced daratumumab-mediated ADCC” and the “CD138 expression levels, median increase” value [14] was 2.0 fold. The “expression of CD56” value [14] was “no significant changes”, the “expression of HLA A/B/C” value [14] was “no significant changes” and the “CD38 expression increase, range” value ([14]; 26 patients) was 1.0-26.5 fold. For the same compound, the “CD38 expression, median increase” value ([14]; 26 patients) was 1.7 fold, the “effect of ATRA pretreatment on daratumumab-mediated CDC” value (RPMI8226 cells [15]) was “no significant improvement” and the “patients with significant increase in susceptibility to daratumumab-mediated CDC” value (primary MM cells [16]; ATRA pretreatment 48 hours) was 13 out of 16. The “effect of ATRA on daratumumab-mediated CDC in cells not responsive to daratumumab alone” value (primary MM cells [16]; for example patients 1, 4, 8, 12, 13, 15 and 16) was “induced daratumumab-mediated CDC”, the “effect of ATRA enhancing daratumumab-mediated CDC in some patient samples” value (primary MM cells [16]; for example patients 6, 7 and 14) was “no additional effect” and the “effect of ATRA on anti-MM effect of daratumumab” value ([17]; daratumumab 8 mg/kg plus ATRA 10 mg/kg plus PBMC-T vs daratumumab plus PBMC-T) was “significantly enhanced”. The “tumor progression (BLI)” value [17] was “no effect”.
“daratumumab: anti-CD38 antibody, IgG1/κ, VH SEQ ID NO: 4, VL SEQ ID NO: 5, heavy chain SEQ ID NO: 12, light chain SEQ ID NO: 13” was tested, and the “ADCC, median” value (primary MM cells [13]; [18]) was 39.5%, the “ADCC, median” value (primary MM cells [13]; without ATRA pretreatment) was 25.1% and the “CDC, median” value (primary MM cells [16]; [18]) was 43.9%. For the same compound, the “CDC, median” value (primary MM cells [16]; without ATRA pretreatment) was 16.1% and the “tumor progression (BLI)” value [17] was “markedly slowed tumor progression”.
